In general, IC50 refers to the concentration that inhibits the measured activity by half.

The experiment has as its target T1, microsomal h-COX2 (Homo sapiens, UniProt P35354).
T1 construct: made in house; host or cells: baculovirus infected SF9 cells (microsomal preparation)
T1 sequence (P35354 18-604): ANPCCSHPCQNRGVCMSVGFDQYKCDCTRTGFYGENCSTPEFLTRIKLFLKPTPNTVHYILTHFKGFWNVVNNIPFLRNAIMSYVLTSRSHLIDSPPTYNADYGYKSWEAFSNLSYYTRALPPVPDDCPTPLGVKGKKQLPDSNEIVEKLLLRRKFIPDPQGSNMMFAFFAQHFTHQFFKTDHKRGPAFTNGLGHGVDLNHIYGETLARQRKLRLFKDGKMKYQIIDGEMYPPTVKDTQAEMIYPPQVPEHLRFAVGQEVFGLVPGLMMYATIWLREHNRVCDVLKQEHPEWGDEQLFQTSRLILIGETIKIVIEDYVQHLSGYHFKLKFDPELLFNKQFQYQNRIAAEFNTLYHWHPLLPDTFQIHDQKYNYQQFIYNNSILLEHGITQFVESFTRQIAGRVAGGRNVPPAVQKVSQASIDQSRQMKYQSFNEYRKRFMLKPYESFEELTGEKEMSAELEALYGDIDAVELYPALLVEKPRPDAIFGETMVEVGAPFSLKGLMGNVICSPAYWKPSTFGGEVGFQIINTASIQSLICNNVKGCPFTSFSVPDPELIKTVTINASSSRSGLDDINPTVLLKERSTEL
The experiment can be described thus: Microsomal assay: inhibitory activity against microsomal h-COX2. It is filed as biochemical. As to conditions: microsomal preparation from baculovirus infected SF9 cells; 1 hour incubation with compound; 0.1 μM arachidonic acid, 10 minutes; PGE2 by EIA; read-out: IC50 values for inhibition of COX-2. The method, then: Biological Data Microsomal Assay
Inhibitory activity against microsomal h-COX2 was assessed against a microsomal preparation from baculovirus infected SF9 cells. An aliquot of microsomal preparation was thawed slowly on ice and a 1/40,000 dilution prepared from it into the assay buffer (sterile water, degassed with argon containing 100 mM HEPES (pH 7.4), 10 mM EDTA (pH7.4), 1 mM phenol, 1 mM reduced glutathione, 20 mg/ml gelatin and 0.001 mM Hematin). Once diluted the enzyme solution was then sonicated for 5 seconds (Branson sonicator, setting 4, 1 cm tip) to ensure a homogeneous suspension. 155 μl enzyme solution was then added to each well of a 96-well microtitre plate containing either 5 μl test compound (40× required test concentration) or 5 μl DMSO for controls. Plates were then mixed and incubated at room temperature for 1 hour. Following the incubation period, 40 μl of 0.5 μM arachidonic acid was added to each well to give a final concentration of 0.1 μM. Plates were then mixed and incubated for exactly 10 minutes (room temperature) prior to addition of 25 μl 1M HCl (hydrochloric acid) to each well to stop the reaction. 25 μl of 1M NaOH (sodium hydroxide) was then added to each well to neutralise the solution prior to determination of PGE2 levels by enzyme immunoassay (EIA).
With `Cc1cc(NCc2cnn(C)c2)nc(-c2ccc(S(C)(=O)=O)cc2)c1` [Example 83, N-[(1-methyl-1H-pyrazol-4-yl)methyl]-4-methyl-6-[4-(methylsulfonyl)phenyl]pyridine-2-amine], the IC50 was no more than 500 nM.

Regarding `CCc1cc(NCc2ncc[nH]2)nc(-c2ccc(S(C)(=O)=O)cc2)c1` [Example 84], the IC50 is no more than 500 nM.

Consider `Cc1cc(OCc2cc(C)n[nH]2)nc(-c2ccc(S(C)(=O)=O)cc2)c1` [Example 85], for which the IC50 is no more than 500 nM.

On to `Cc1cc(OCc2ccnn2C)nc(-c2ccc(S(C)(=O)=O)cc2)c1` [Example 86], for which the half-maximal inhibitory concentration (IC50) is no more than 500 nM.

For `Cc1cc(NCc2ncnn2C)nc(-c2ccc(S(C)(=O)=O)cc2)c1` [Example 87], the IC50 is no more than 500 nM.

Consider `Cc1cc(OCc2cc(C)on2)nc(-c2ccc(S(C)(=O)=O)cc2)c1` [Example 88], for which the IC50 was no more than 500 nM.

In the case of `CCc1cc(NC2CCOCC2)nc(-c2ccc(S(C)(=O)=O)cc2)c1` [Example 89, 4-Ethyl-6-[4-(methylsulfonyl)phenyl]-N-(tetrahydro-2H-pyran-4-yl)pyridine-2-amine], the IC50 was no more than 500 nM.

With `CS(=O)(=O)c1ccc(-c2cc(CF)cc(NC3CCCCC3)n2)cc1` [Example 92], the IC50 is no more than 500 nM.

In the case of `CCc1cc(NCc2ccccc2)nc(-c2ccc(S(C)(=O)=O)cc2)c1` [Example 93], the IC50 is no more than 500 nM.

On to `Cc1cc(N[C@@H](C)c2ccccc2)nc(-c2ccc(S(C)(=O)=O)cc2)c1` [Example 94], for which the IC50 is no more than 500 nM.

For the molecule `Cc1cc(NCc2ccccc2C)nc(-c2ccc(S(C)(=O)=O)cc2)c1` [Example 95], the concentration for half-maximal inhibition (IC50) was no more than 500 nM.

As to `CCc1cc(OCc2ccccc2)nc(-c2ccc(S(C)(=O)=O)cc2)c1` [Example 96], the IC50 was no more than 500 nM.

As for `Cc1cc(NCc2ccc(C)nc2)nc(-c2ccc(S(C)(=O)=O)cc2)c1` [Example 98], the concentration for half-maximal inhibition (IC50) is no more than 500 nM.

As to `CCc1cc(Nc2ccc(C)nc2)nc(-c2ccc(S(C)(=O)=O)cc2)c1` [Example 99], the concentration for half-maximal inhibition (IC50) was no more than 500 nM.

Turning to `CCc1cc(OCc2cccnc2)nc(-c2ccc(S(C)(=O)=O)cc2)c1` [Example 101], the IC50 is no more than 500 nM.

Turning to `CCc1cc(NCc2cnccn2)nc(-c2ccc(S(C)(=O)=O)cc2)c1` [Example 103], the IC50 is no more than 500 nM.

As to `CS(=O)(=O)c1ccc(-c2cc(CF)cc(NCc3ccccc3)n2)cc1` [Example 104], the 50% inhibitory concentration (IC50) is no more than 500 nM.

For `CCc1cc(Nc2ccc(F)cc2)nc(-c2ccc(S(C)(=O)=O)cc2)c1` [Example 105], the IC50 was no more than 500 nM.

Consider `CCc1cc(NCc2nccn2C)nc(-c2ccc(S(C)(=O)=O)cc2)c1` [Example 108], for which the IC50 is no more than 500 nM.

As to `CCc1cc(NCc2[nH]cnc2C)nc(-c2ccc(S(C)(=O)=O)cc2)c1` [Example 109], the IC50 was no more than 500 nM.

Take `Cc1cc(-c2ccc(S(C)(=O)=O)cc2)nc(N(C)Cc2nccn2C)c1` [Example 110]: the IC50 was no more than 500 nM.

As to `CCn1ccnc1CNc1cc(C)cc(-c2ccc(S(C)(=O)=O)cc2)n1` [Example 112], the IC50 is no more than 500 nM.

As for `Cc1cc(NCc2cn(C)nc2C)nc(-c2ccc(S(C)(=O)=O)cc2)c1` [Example 113], the 50% inhibitory concentration (IC50) was no more than 500 nM.

As to `Cc1cc(NCc2cnn(C)c2C)nc(-c2ccc(S(C)(=O)=O)cc2)c1` [Example 114], the 50% inhibitory concentration (IC50) was no more than 500 nM.

Consider `CCc1cc(NCc2cnn(C)c2)nc(-c2ccc(S(C)(=O)=O)cc2)c1` [Example 115], for which the concentration for half-maximal inhibition (IC50) is no more than 500 nM.

Consider `CCc1cc(OCc2ccnn2C)nc(-c2ccc(S(C)(=O)=O)cc2)c1` [Example 116], for which the 50% inhibitory concentration (IC50) is no more than 500 nM.

With `CCc1cc(NCc2cccs2)nc(-c2ccc(S(C)(=O)=O)cc2)c1` [Example 120], the IC50 was no more than 500 nM.

Take `Cc1cc(NCc2cc(C)ns2)nc(-c2ccc(S(C)(=O)=O)cc2)c1` [Example 123]: the concentration for half-maximal inhibition (IC50) was no more than 500 nM.

Take `Cc1cc(NCc2nc(C)cs2)nc(-c2ccc(S(C)(=O)=O)cc2)c1` [Example 124]: the IC50 was no more than 500 nM.

Regarding `Cc1cc(NCc2csnc2C)nc(-c2ccc(S(C)(=O)=O)cc2)c1` [Example 125], the 50% inhibitory concentration (IC50) is no more than 500 nM.

For `Cc1cc(NCc2cnn(CF)c2)nc(-c2ccc(S(C)(=O)=O)cc2)c1` [Example 126], the half-maximal inhibitory concentration (IC50) was no more than 500 nM.

In the case of `CCN(Cc1ccccc1)c1cc(C)cc(-c2ccc(S(C)(=O)=O)cc2)n1` [Example 128], the half-maximal inhibitory concentration (IC50) was no more than 500 nM.

For `CCc1cc(NCc2ccc(C)cc2)nc(-c2ccc(S(C)(=O)=O)cc2)c1` [Example 129], the IC50 is no more than 500 nM.

For the molecule `Cc1cc(-c2ccc(S(C)(=O)=O)cc2)nc(NCc2cnn(C)c2)c1C#N` [Example 131], the IC50 was no more than 500 nM.

Regarding `CCc1cc(OCc2cccnc2C)nc(-c2ccc(S(C)(=O)=O)cc2)c1` [Example 133], the IC50 was no more than 500 nM.

Consider `CCc1cc(OCc2ccc(C)nc2)nc(-c2ccc(S(C)(=O)=O)cc2)c1` [Example 134], for which the IC50 was no more than 500 nM.

For `CCc1cc(OCc2cccc(C)n2)nc(-c2ccc(S(C)(=O)=O)cc2)c1` [Example 135], the IC50 is no more than 500 nM.

For `CCc1cc(NCc2cnn(C)c2C)nc(-c2ccc(S(C)(=O)=O)cc2)c1` [Example 139], the IC50 was no more than 500 nM.

As for `CCc1cc(NCc2nc(C)cs2)nc(-c2ccc(S(C)(=O)=O)cc2)c1` [Example 142], the half-maximal inhibitory concentration (IC50) was no more than 500 nM.

Turning to `CCc1cc(-c2ccc(S(C)(=O)=O)cc2)nc(NCc2cnn(C)c2)c1F` [Example 143], the IC50 is no more than 500 nM.

On to `CCc1cc(NCc2cnn(CF)c2)nc(-c2ccc(S(C)(=O)=O)cc2)c1` [Example 144], for which the IC50 is no more than 500 nM.

Take `Cc1cc(-c2ccc(S(C)(=O)=O)cc2)nc(NCc2cnn(C)c2)c1Cl` [Example 147]: the IC50 is no more than 500 nM.

As for `CCc1cc(-c2ccc(S(C)(=O)=O)cc2)nc(NCc2ccccc2)c1C#N` [Example 148], the IC50 is no more than 500 nM.

As to `Cc1ccc(COc2nc(-c3ccc(S(C)(=O)=O)cc3)cc(C)c2C#N)cn1` [Example 149], the 50% inhibitory concentration (IC50) was no more than 500 nM.

In the case of `CS(=O)(=O)c1ccc(-c2cc(C(F)(F)F)cc(Oc3cccnc3)n2)cc1` [Example 150], the IC50 is no more than 500 nM.

`CC(C)(C)c1cc(NCc2ccccc2)nc(-c2ccc(S(C)(=O)=O)cc2)c1` [Example 151]: the IC50 was no more than 500 nM.

Turning to `CS(=O)(=O)c1ccc(-c2cc(C(F)(F)F)cc(NCc3ncc[nH]3)n2)cc1` [Example 153], the half-inhibitory concentration (IC50) was no more than 500 nM.

For `CCOc1ccc(Nc2cc(CC)cc(-c3ccc(S(C)(=O)=O)cc3)n2)cc1` [Example 154], the 50% inhibitory concentration (IC50) was no more than 500 nM.

Regarding `Cc1cc(OCc2ccc(C)nc2)nc(-c2ccc(S(C)(=O)=O)cc2)c1` [Example 158], the IC50 was no more than 500 nM.

For `Cc1ncccc1Nc1cc(C(F)(F)F)cc(-c2ccc(S(C)(=O)=O)cc2)n1` [Example 160], the IC50 is no more than 500 nM.

`Cc1cccc(Nc2cc(C(F)(F)F)cc(-c3ccc(S(C)(=O)=O)cc3)n2)n1` [Example 162]: the 50% inhibitory concentration (IC50) was no more than 500 nM.

For `Cc1ccc(Nc2cc(C(F)(F)F)cc(-c3ccc(S(C)(=O)=O)cc3)n2)cn1` [Example 163], the IC50 was no more than 500 nM.

Take `CS(=O)(=O)c1ccc(-c2cc(C(F)(F)F)cc(OCc3ccccn3)n2)cc1` [Example 164, 2-[4-(methylsulfonyl)phenyl]-6-[(2-pyridinylmethyl)oxy]-4-(trifluoromethyl)pyridine]: the half-maximal inhibitory concentration (IC50) is no more than 500 nM.

`Cc1ncccc1Oc1cc(C(F)(F)F)cc(-c2ccc(S(C)(=O)=O)cc2)n1` [Example 165]: the IC50 was no more than 500 nM.

Turning to `CS(=O)(=O)c1ccc(-c2cc(C(F)(F)F)cc(OCc3cccnc3)n2)cc1` [Example 166], the IC50 is no more than 500 nM.

On to `Cc1ccc(Oc2cc(C(F)(F)F)cc(-c3ccc(S(C)(=O)=O)cc3)n2)cn1` [Example 167], for which the concentration for half-maximal inhibition (IC50) was no more than 500 nM.

For `CS(=O)(=O)c1ccc(-c2cc(C(F)(F)F)cc(NCc3cnccn3)n2)cc1` [Example 168], the half-maximal inhibitory concentration (IC50) was no more than 500 nM.

`CS(=O)(=O)c1ccc(-c2cc(C(F)(F)F)cc(Nc3ccc(F)cc3)n2)cc1` [Example 169]: the half-inhibitory concentration (IC50) is no more than 500 nM.

As for `CN(Cc1ccco1)c1cc(C(F)(F)F)cc(-c2ccc(S(C)(=O)=O)cc2)n1` [Example 170], the IC50 was no more than 500 nM.

Take `Cn1cc(CNc2cc(C(F)(F)F)cc(-c3ccc(S(C)(=O)=O)cc3)n2)cn1` [Example 171]: the half-inhibitory concentration (IC50) was no more than 500 nM.

As for `Cn1ncnc1CNc1cc(C(F)(F)F)cc(-c2ccc(S(C)(=O)=O)cc2)n1` [Example 173], the IC50 was no more than 500 nM.
